≈ marks a conversion by molar mass, not a printed value. Where two headings read alike, the source gives them in different places.
How the values were obtained:
[1] = system: Bacillus strain BC1 (NRRL No. B-67744); test: Antibiotic resistance, phenotypic MICs of medical antibiotics; assay type: cell-based, Bacillus coagulans; conditions: for MIC: Bacillus
[2] = system: Bacillus strain (NRRL No. B-68054); test: Antibiotic resistance, Minimum Inhibitory Concentrations (MICs) Against Medical Antibiotics; assay type: cell-based, Bacillus subtilis
From the text: (§1) The inventors have assessed resistance phenotypically. A bacterial strain is defined by EFSA as susceptible when its growth is inhibited at concentration of a specific antibiotic that is equal to or lower than the established cut-off value for that particular species. A bacterial strain is defined as resistant when it is able to grow at a concentration of a specific antibiotic that is higher than the established cut-off. The inventors utilized both the EFSA and CLSI guidelines for determining susceptibility and resistance interpreted through their defined cut-off values.

[3] = system: Bacillus strain (NRRL No. B-68053); test: as above; assay type: cell-based, Bacillus subtilis
From the text: as §1, with “cut-off. We” for “cut-off. The inventors”

[4] = NRRLB67744, MIC of the antibiotic against the strain, triplicate, read-out: NRRL No. B-67744 ug/ml (triplicate)
[5] = Bacillus, NRRLB68054; read-out: NRRL No. B-68054 ug/mL (triplicate), Minimum Inhibitory Concentration
[6] = Bacillus, NRRLB68053; read-out: NRRL No. B-68053 ug/mL (triplicate), Minimum Inhibitory Concentration
[7] = Bacillus, NRRLB68054, read-out: NRRL No. B-68054 ug/mL (triplicate), Minimum Inhibitory Concentration
[8] = Bacillus, NRRLB68053, read-out: NRRL No. B-68053 ug/mL (triplicate), Minimum Inhibitory Concentration

Compound: CCC[C@@H]1C[C@@H](C(=O)N[C@@H]([C@H]2O[C@H](SC)[C@H](O)[C@@H](O)[C@H]2O)[C@H](C)Cl)N(C)C1 [Clindamycin]
- MIC [1, 4]: 0.016 µg/mL
- MIC [2, 5]: 0.5 µg/mL (≈ 1.18 µM)
- MIC [3, 6]: 1 µg/mL (≈ 2.35 µM)

Compound: Gentamicin
- NRRL No. B-67744 ug/ml (triplicate) ([1]; MIC of the antibiotic against the strain, triplicate): 0.023 µg/mL
- NRRL No. B-68054 ug/mL (triplicate), Minimum Inhibitory Concentration ([2]; triplicate): 0.125 µg/mL
- NRRL No. B-68053 ug/mL (triplicate), Minimum Inhibitory Concentration ([3]; triplicate): 0.094 µg/mL

Compound: CO[C@H]1/C=C/O[C@@]2(C)Oc3c(C)c(O)c4c(O)c(c(/C=N/N5CCN(C)CC5)c(O)c4c3C2=O)NC(=O)/C(C)=C\C=C\[C@H](C)[C@H](O)[C@@H](C)[C@@H](O)[C@@H](C)[C@H](OC(C)=O)[C@@H]1C [Rifampin]
- MIC [1, 4]: 0.25 µg/mL
- MIC [2, 5]: 0.5 µg/mL (≈ 0.608 µM)
- MIC [3, 6]: 0.25 µg/mL (≈ 0.304 µM)

Compound: CC(=O)NC[C@H]1CN(c2ccc(N3CCOCC3)c(F)c2)C(=O)O1 [Linezolid]
- MIC [1, 4]: 0.75 µg/mL
- MIC [2, 5]: 0.25 µg/mL (≈ 0.741 µM)
- MIC [3, 6]: 1 µg/mL (≈ 2.96 µM)

Compound: [H]/N=C(/N)N[C@H]1[C@H](O)[C@@H](O)[C@H](O[C@@H]2O[C@@H](C)[C@](O)(C=O)[C@H]2O[C@@H]2O[C@@H](CO)[C@H](O)[C@@H](O)[C@@H]2NC)[C@@H](N/C(N)=N\[H])[C@@H]1O [Streptomycin]
- MIC [1, 4]: 1.5 µg/mL
- MIC [2, 5]: 4 µg/mL (≈ 6.88 µM)
- MIC [3, 6]: 8 µg/mL (≈ 13.8 µM)

Compound: CN[C@H](CC(C)C)C(=O)N[C@H]1C(=O)N[C@@H](CC(N)=O)C(=O)N[C@H]2C(=O)N[C@H]3C(=O)N[C@H](C(=O)N[C@H](C(=O)O)c4cc(O)cc(O)c4-c4cc3ccc4O)[C@H](O)c3ccc(c(Cl)c3)Oc3cc2cc(c3O[C@@H]2O[C@H](CO)[C@@H](O)[C@H](O)[C@H]2O[C@H]2C[C@](C)(N)[C@H](O)[C@H](C)O2)Oc2ccc(cc2Cl)[C@H]1O [Vancomycin]
- MIC [1, 4]: 0.38 µg/mL
- MIC [2, 7]: 0.75 µg/mL (≈ 0.518 µM)
- MIC [3, 8]: 0.5 µg/mL (≈ 0.345 µM)

Compound: NC[C@H]1O[C@H](O[C@H]2[C@H](O)[C@@H](O[C@H]3O[C@H](CO)[C@@H](O)[C@H](N)[C@H]3O)[C@H](N)C[C@@H]2N)[C@H](O)[C@@H](O)[C@@H]1O [Kanamycin]
- MIC [1, 4]: 0.016 µg/mL
- MIC [2, 5]: 0.75 µg/mL (≈ 1.55 µM)
- MIC [3, 6]: 0.75 µg/mL (≈ 1.55 µM)

Compound: O=C(O)c1cn(C2CC2)c2cc(N3CCNCC3)c(F)cc2c1=O [Ciprofloxacin]
- MIC [3, 6]: 0.94 µg/mL (≈ 2.84 µM)

Compound: O=C(N[C@H](CO)[C@H](O)c1ccc([N+](=O)[O-])cc1)C(Cl)Cl [Chloramphenicol]
- MIC [1, 4]: 0.016 µg/mL
- MIC [2, 5]: 1.5 µg/mL (≈ 4.64 µM)
- MIC [3, 6]: 3 µg/mL (≈ 9.28 µM)

Compound: CN(C)[C@@H]1C(O)=C(C(N)=O)C(=O)[C@@]2(O)C(O)=C3C(=O)c4c(O)cccc4[C@@](C)(O)[C@H]3C[C@@H]12 [Tetracycline]
- MIC [1, 4]: 1.25 µg/mL
- MIC [2, 5]: 6 µg/mL (≈ 13.5 µM)
- MIC [3, 6]: 12 µg/mL (≈ 27 µM)

Compound: CC[C@H]1OC(=O)[C@H](C)[C@@H](O[C@H]2C[C@@](C)(OC)[C@@H](O)[C@H](C)O2)[C@H](C)[C@@H](O[C@@H]2O[C@H](C)C[C@H](N(C)C)[C@H]2O)[C@](C)(O)C[C@@H](C)C(=O)[C@H](C)[C@@H](O)[C@]1(C)O [Erythromycin]
- MIC [1, 4]: 0.125 µg/mL
- MIC [2, 5]: 0.047 µg/mL (≈ 0.064 µM)
- MIC [3, 6]: 0.064 µg/mL (≈ 0.0872 µM)

Compound: CN(C)c1cc(NC(=O)CNC(C)(C)C)c(O)c2c1C[C@H]1C[C@H]3[C@H](N(C)C)C(O)=C(C(N)=O)C(=O)[C@@]3(O)C(O)=C1C2=O [Tigecycline]
- MIC ([1]; NRRLB67744, read-out: NRRL No. B-67744 ug/ml (triplicate)): 0.064 µg/mL (≈ 0.109 µM)
- MIC [2, 7]: 0.064 µg/mL (≈ 0.109 µM)
- MIC [3, 8]: 0.094 µg/mL (≈ 0.161 µM)

From patent US20240139260A1, “MICROBIAL STRAIN COMPOSITIONS” (MICROBIAL DISCOVERY GROUP, LLC, priority 2022, published 2024)
